Key:
[1] = target: T1, Adenosine A2 receptor (UniProt P29275+P29274); conditions: Canis lupus familiaris
[2] = Index of hydrophobicity (k'); type: ADME
[3] = target: T1, Adenosine A2 receptor; assay: Molar potency ratio (MPR) against A2 adenosine receptor of coronary artery; type: functional; conditions: Canis lupus familiaris
[4] = target: T1, Adenosine A2 receptor; assay: Acidic dissociation constant(pKa) against A2 adenosine receptor of coronary artery; type: protein assay; conditions: Canis lupus familiaris
[5] = target: T1, Adenosine A2 receptor; assay: Association constant against A2 adenosine receptor; type: protein assay; conditions: Canis lupus familiaris
[6] = target: T1, Adenosine A2 receptor; conditions: Canis lupus familiaris; remark: listed apart in the source
Description: Molar potency ratio (MPR) against adenosine A2 receptor of canine coronary artery

[7] = target: T1, Adenosine A2 receptor; assay: Maximum increase in coronary flow, percent of control, and nucleoside concentration in coronary plasma at 28 uM; type: functional; conditions: Canis lupus familiaris
[8] = target: T1, Adenosine A2 receptor; assay: Maximum increase in coronary flow, percent of control, and nucleoside concentration in coronary plasma at 17 uM; type: functional; conditions: Canis lupus familiaris
[9] = target: T1, Adenosine A2 receptor; assay: Maximum increase in coronary flow, percent of control, and nucleoside concentration in coronary plasma at 12 uM; type: functional; conditions: Canis lupus familiaris
[10] = Estimated ionization constant(pKa); type: physicochemical

T1 sequence (P29274 whole entry, looked up): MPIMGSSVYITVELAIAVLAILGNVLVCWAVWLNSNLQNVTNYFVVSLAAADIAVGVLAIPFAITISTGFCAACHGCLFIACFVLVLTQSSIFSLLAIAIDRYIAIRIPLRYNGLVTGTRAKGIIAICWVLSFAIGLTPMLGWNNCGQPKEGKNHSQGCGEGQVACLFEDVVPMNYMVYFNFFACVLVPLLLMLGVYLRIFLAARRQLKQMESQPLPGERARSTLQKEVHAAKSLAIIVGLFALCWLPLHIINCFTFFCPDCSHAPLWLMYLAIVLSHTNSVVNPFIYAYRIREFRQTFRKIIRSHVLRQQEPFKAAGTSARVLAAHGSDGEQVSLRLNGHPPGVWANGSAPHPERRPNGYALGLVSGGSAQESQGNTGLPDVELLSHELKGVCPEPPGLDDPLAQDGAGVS
T1 sequence (P29275 whole entry, looked up): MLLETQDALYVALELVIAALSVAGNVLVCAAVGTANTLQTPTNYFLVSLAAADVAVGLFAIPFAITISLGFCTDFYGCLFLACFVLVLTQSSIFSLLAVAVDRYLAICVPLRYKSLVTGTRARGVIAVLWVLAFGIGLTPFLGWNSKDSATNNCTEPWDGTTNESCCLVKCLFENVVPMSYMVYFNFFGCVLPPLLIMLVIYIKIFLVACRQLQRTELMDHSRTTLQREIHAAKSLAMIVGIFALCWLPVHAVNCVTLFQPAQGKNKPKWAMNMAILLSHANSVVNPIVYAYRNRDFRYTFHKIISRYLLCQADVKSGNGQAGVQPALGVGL

| k' [2] | pka [4] | MPR [6] | SMILES | other results |
| --- | --- | --- | --- | --- |
| – | – | – | C[C@H](Cc1ccccc1)Nc1ncnc2c1ncn2[C@@H]1O[C@H](CO)[C@@H](O)[C@H]1O (stereo in doubt; 1) | MPR [1]: 4.3 |
| 2.31 | 3.3 | – | COc1ccccc1CNc1ncnc2c1ncn2[C@@H]1O[C@H](CO)[C@@H](O)[C@H]1O | MPR [3]: 0.7 |
| 2.39 | 3.32 | 2.1 | OC[C@H]1OC(n2cnc3c(NCCc4ccc(F)cc4)ncnc32)[C@H](O)[C@@H]1O (some centres undefined) | K [5]: 10300 M⁻¹ |
| 1.54 | 2.8 | – | COc1cc(Nc2ncnc3c2ncn3C2O[C@H](CO)[C@@H](O)[C@H]2O)cc(OC)c1OC (some centres undefined) | Activity [7]: 28% |
| 1.52 | – | – | Cc1cccc(C)c1Nc1ncnc2c1ncn2C1O[C@H](CO)[C@@H](O)[C@H]1O (some centres undefined) | Activity [8]: 22% |
| 6.43 | – | – | Cc1cc(C)cc(Nc2ncnc3c2ncn3C2O[C@H](CO)[C@@H](O)[C@H]2O)c1 (some centres undefined) | Activity [9]: 4% |
| 1.68 | 2.65 | 1.5 | OC[C@H]1OC(n2cnc3c(Nc4ccc(F)cc4)ncnc32)[C@H](O)[C@@H]1O (some centres undefined) | K [5]: 3560 M⁻¹ |
| 1.29 | 2.73 | 1.4 | OC[C@H]1O[C@@H](n2cnc3c(Nc4ccccc4)ncnc32)[C@H](O)[C@@H]1O [N6-PHENYLADENOSINE] | K [5]: 3160 M⁻¹ |
| 2.76 | 3.22 | 1.8 | Cc1ccccc1CNc1ncnc2c1ncn2[C@@H]1O[C@H](CO)[C@@H](O)[C@H]1O | – |
| 3.04 | 3.19 | 0.04 | Cc1ccc(CNc2ncnc3c2ncn3[C@@H]2O[C@H](CO)[C@@H](O)[C@H]2O)cc1 | – |
| 2.36 | 2.66 | 0.43 | OC[C@H]1OC(n2cnc3c(Nc4cccc(F)c4)ncnc32)[C@H](O)[C@@H]1O (some centres undefined) | K [5]: 6360 M⁻¹ |
| 3.64 | 3.27 | 0.67 | OC[C@H]1OC(n2cnc3c(NCCc4ccccc4Cl)ncnc32)[C@H](O)[C@@H]1O (some centres undefined) | K [5]: 32400 M⁻¹ |
| 1.32 | 2.59 | 0.26 | COc1cccc(Nc2ncnc3c2ncn3C2O[C@H](CO)[C@@H](O)[C@H]2O)c1 (some centres undefined) | – |
| 1.66 | 3.06 | – | COc1ccc(CNc2ncnc3c2ncn3[C@@H]2O[C@H](CO)[C@@H](O)[C@H]2O)cc1 | MPR [1]: 0.04 |
| 1.77 | 3.57 | 2 | OC[C@H]1O[C@@H](n2cnc3c(NCCc4ccccc4)ncnc32)[C@H](O)[C@@H]1O | – |
| 0.32 | < 1 | 0.42 | OC[C@H]1OC(n2cnc3c(NCCc4ccncc4)ncnc32)[C@H](O)[C@@H]1O (some centres undefined) | – |
| 1.36 | 2.95 | 3.5 | COc1ccc(Nc2ncnc3c2ncn3[C@@H]2O[C@H](CO)[C@@H](O)[C@H]2O)cc1 | – |
| 1.21 | 3.07 | 0.52 | OC[C@H]1O[C@@H](n2cnc3c(NCc4ccccc4)ncnc32)[C@H](O)[C@@H]1O [N6-BENZYLADENOSINE] | – |
| 1.4 | 2.98 | 0.65 | Cc1ccccc1Nc1ncnc2c1ncn2C1O[C@H](CO)[C@@H](O)[C@H]1O (some centres undefined) | – |
| 3.28 | 2.79 | 0.023 | Cc1cccc(Nc2ncnc3c2ncn3C2O[C@H](CO)[C@@H](O)[C@H]2O)c1 (some centres undefined) | – |
| 4.96 | 2.46 | 0.94 | OC[C@H]1OC(n2cnc3c(Nc4ccc(Cl)cc4)ncnc32)[C@H](O)[C@@H]1O (some centres undefined) | – |
| 5.05 | 2.61 | 0.2 | OC[C@H]1OC(n2cnc3c(Nc4cccc(Cl)c4)ncnc32)[C@H](O)[C@@H]1O (some centres undefined) | – |
| 1.57 | 3.08 | 0.57 | OC[C@H]1OC(n2cnc3c(NCc4ccccc4F)ncnc32)[C@H](O)[C@@H]1O (some centres undefined) | – |
| 4.07 | 3.23 | 0.41 | OC[C@H]1OC(n2cnc3c(NCCc4ccc(Cl)cc4)ncnc32)[C@H](O)[C@@H]1O (some centres undefined) | – |
| 1.93 | 2.97 | 0.28 | COc1ccccc1Nc1ncnc2c1ncn2C1O[C@H](CO)[C@@H](O)[C@H]1O (some centres undefined) | – |
| 2.57 | – | 1.2 | COc1ccccc1CCNc1ncnc2c1ncn2C1O[C@H](CO)[C@@H](O)[C@H]1O (some centres undefined) | pKa [10]: 3.56 |
| 4.89 | – | – | OC[C@H]1OC(n2cnc3c(NC4CCc5ccccc5C4)ncnc32)[C@H](O)[C@@H]1O (some centres undefined) | MPR [1]: 0.14 |
| 3.44 | 3.61 | 0.005 | OC[C@H]1O[C@@H](n2cnc3c(NCc4ccc(Cl)cc4)ncnc32)[C@H](O)[C@@H]1O | – |

From ChEMBL document CHEMBL1123294, “Dog coronary artery adenosine receptor: structure of the N6-aryl subregion” (J Med Chem, 1986)
